Reference: patent US20160136246A1, “Novel Uses of GLP-1 Receptor Agonists in Patients Treated with Insulin and/or Suffering from Type 1 Diabetes” (NOVO NORDISK A/S, priority 2013, published 2016)

Key:
[1] = tested on: adults with type 1 diabetes; assay: Randomised, double-blind crossover trial of liraglutide adjunct to insulin, 4 weeks of treatment: glycaemic control and safety; format: in vivo, human; conditions: for Asymptomatic hypoglycaemic episodes, N = number of subjects / Asymptomatic hypoglycaemic episodes, percentage of subjects / Documented symptomatic hypoglycaemic episodes, N = number of subjects / Documented symptomatic hypoglycaemic episodes, percentage of subjects / Probable symptomatic hypoglycaemic episodes, E = number of events / Probable symptomatic hypoglycaemic episodes, N = number of subjects / Probable symptomatic hypoglycaemic episodes, percentage of subjects / Severe hypoglycaemic episodes, E = number of events / Severe hypoglycaemic episodes, N = number of subjects / Severe hypoglycaemic episodes, percentage of subjects / Total ADA classified hypoglycaemic episodes, E = number of events / Total ADA classified hypoglycaemic episodes, N = number of subjects / Total ADA classified hypoglycaemic episodes, percentage of subjects: during treatment
Method: Subjects received target dose for a minimum of 2 weeks.
After 4 weeks of treatment, estimated treatment differences in insulin dose, HbA1c, pulse and body weight were assessed. Hypoglycaemia and hypoglycaemic episodes and overall safety parameters were assessed throughout the treatment period.
Hypoglycaemia and/or hypoglycaemic episodes were defined and assessed according to the ADA Hypoglycaemic Classification (FIG. 3).

[2] = tested on: adults with type 1 diabetes; assay: Stepwise hypoglycaemic clamp at the end of each treatment period; format: in vivo, human
Method: A stepwise hypoglycaemic clamp was performed at the end of each treatment period via controlled i.v. insulin/glucose infusion (FIG. 5). The successive plasma glucose (PG) levels were 5.5, 3.5, 2.5 mmol/L (nadir), and 4.0 mmol/L (recovery). Counterregulatory hormones (glucagon, adrenalin, noradrenalin, cortisol, and growth hormone) and vital signs (pulse, blood pressure) were measured at each successive PG level during the clamp. Glucose infusion rate was also assessed.

[3] = 0.6 mg liraglutide, during the trial
[4] = 1.2 mg liraglutide, during the trial
[5] = 1.8 mg liraglutide, during the trial

CCCCCCCCCCCCCCCC(=O)N[C@@H](CCC(=O)NCCCC[C@H](NC(=O)[C@H](C)NC(=O)[C@H](C)NC(=O)[C@H](CCC(N)=O)NC(=O)CNC(=O)[C@H](CCC(=O)O)NC(=O)[C@H](CC(C)C)NC(=O)[C@H](Cc1ccc(O)cc1)NC(=O)[C@H](CO)NC(=O)[C@H](CO)NC(=O)[C@@H](NC(=O)[C@H](CC(=O)O)NC(=O)[C@H](CO)NC(=O)[C@@H](NC(=O)[C@H](Cc1ccccc1)NC(=O)[C@@H](NC(=O)CNC(=O)[C@H](CCC(=O)O)NC(=O)[C@H](C)NC(=O)[C@@H](N)Cc1cnc[nH]1)[C@@H](C)O)[C@@H](C)O)C(C)C)C(=O)N[C@@H](CCC(=O)O)C(=O)N[C@@H](Cc1ccccc1)C(=O)N[C@H](C(=O)N[C@@H](C)C(=O)N[C@@H](Cc1c[nH]c2ccccc12)C(=O)N[C@@H](CC(C)C)C(=O)N[C@H](C(=O)N[C@@H](CCCNC(=N)N)C(=O)NCC(=O)N[C@@H](CCCNC(=N)N)C(=O)NCC(=O)O)C(C)C)[C@@H](C)CC)C(=O)O [liraglutide]
AEs leading to withdrawal, E = number of events [1, 3]: 1 | AEs leading to withdrawal, N = number of subjects [1, 3]: 1 | AEs leading to withdrawal, percentage of subjects [1, 3]: 6.7% | Abdominal distention, E = number of events [1, 3]: 1 | Abdominal distention, N = number of subjects [1, 3]: 1 | Abdominal distention, percentage of subjects [1, 3]: 6.7% | Abdominal pain (N % E, given as a single 0) [1, 3]: 0/0 | Adverse events, total number of events, E = number of events [1, 3]: 27 | Adverse events, total number of events, N = number of subjects [1, 3]: 12 | Adverse events, total number of events, percentage of subjects [1, 3]: 80.0% | Diarrhea (N % E, given as a single 0) [1, 3]: 0/ | Dyspepsia (N % E, given as a single 0) [1, 3]: 0/0 | Flatulence, E = number of events [1, 3]: 1 | Flatulence, N = number of subjects [1, 3]: 1 | Flatulence, percentage of subjects [1, 3]: 6.7% | Nausea, E = number of events [1, 3]: 8 | Nausea, N = number of subjects [1, 3]: 8 | Nausea, percentage of subjects [1, 3]: 53.3% | Regurgitation, E = number of events [1, 3]: 1 | Regurgitation, N = number of subjects [1, 3]: 1 | Regurgitation, percentage of subjects [1, 3]: 6.7% | Serious AEs (N % E, given as a single 0) [1, 3]: 0/0 | Total number of GI AEs, E = number of events [1, 3]: 12 | Total number of GI AEs, N = number of subjects [1, 3]: 10 | Total number of GI AEs, percentage of subjects [1, 3]: 66.7% | Upper abdominal pain (N % E, given as a single 0) [1, 3]: 0/0 | Vomiting, E = number of events [1, 3]: 1 | Vomiting, N = number of subjects [1, 3]: 1 | Vomiting, percentage of subjects [1, 3]: 6.7% | Asymptomatic hypoglycaemic episodes, N = number of subjects ([1]; 0.6 mg liraglutide): 12 | Asymptomatic hypoglycaemic episodes, percentage of subjects ([1]; 0.6 mg liraglutide): 80.0% | Documented symptomatic hypoglycaemic episodes, N = number of subjects ([1]; 0.6 mg liraglutide): 13 | Documented symptomatic hypoglycaemic episodes, percentage of subjects ([1]; 0.6 mg liraglutide): 86.7% | Probable symptomatic hypoglycaemic episodes, E = number of events ([1]; 0.6 mg liraglutide): 3 | Probable symptomatic hypoglycaemic episodes, N = number of subjects ([1]; 0.6 mg liraglutide): 1 | Probable symptomatic hypoglycaemic episodes, percentage of subjects ([1]; 0.6 mg liraglutide): 6.7% | Severe hypoglycaemic episodes, E = number of events ([1]; 0.6 mg liraglutide): 0 (0) 0/ | Severe hypoglycaemic episodes, N = number of subjects ([1]; 0.6 mg liraglutide): 0 (0) 0/ | Severe hypoglycaemic episodes, percentage of subjects ([1]; 0.6 mg liraglutide): 0 (0) 0/ % | Total ADA classified hypoglycaemic episodes, E = number of events ([1]; 0.6 mg liraglutide): 289 | Total ADA classified hypoglycaemic episodes, N = number of subjects ([1]; 0.6 mg liraglutide): 14 | Total ADA classified hypoglycaemic episodes, percentage of subjects ([1]; 0.6 mg liraglutide): 93.3% | AEs leading to withdrawal, E = number of events [1, 4]: 1 | AEs leading to withdrawal, N = number of subjects [1, 4]: 1 | AEs leading to withdrawal, percentage of subjects [1, 4]: 7.1% | Abdominal distention, E = number of events [1, 4]: 3 | Abdominal distention, N = number of subjects [1, 4]: 3 | Abdominal distention, percentage of subjects [1, 4]: 21.4% | Abdominal pain, E = number of events [1, 4]: 1 | Abdominal pain, N = number of subjects [1, 4]: 1 | Abdominal pain, percentage of subjects [1, 4]: 7.1% | Adverse events, total number of events, E = number of events [1, 4]: 45 | Adverse events, total number of events, N = number of subjects [1, 4]: 14 | Adverse events, total number of events, percentage of subjects [1, 4]: 100% | Diarrhea, E = number of events [1, 4]: 1 | Diarrhea, N = number of subjects [1, 4]: 1 | Diarrhea, percentage of subjects [1, 4]: 7.1% | Dyspepsia, E = number of events [1, 4]: 1 | Dyspepsia, N = number of subjects [1, 4]: 1 | Dyspepsia, percentage of subjects [1, 4]: 7.1% | Flatulence, E = number of events [1, 4]: 1 | Flatulence, N = number of subjects [1, 4]: 1 | Flatulence, percentage of subjects [1, 4]: 7.1% | Nausea, E = number of events [1, 4]: 14 | Nausea, N = number of subjects [1, 4]: 11 | Nausea, percentage of subjects [1, 4]: 78.6% | Regurgitation, E = number of events [1, 4]: 2 | Regurgitation, N = number of subjects [1, 4]: 2 | Regurgitation, percentage of subjects [1, 4]: 14.3% | Serious AEs (N % E, given as a single 0) [1, 4]: 0/0 | Total number of GI AEs, E = number of events [1, 4]: 24 | Total number of GI AEs, N = number of subjects [1, 4]: 12 | Total number of GI AEs, percentage of subjects [1, 4]: 85.7% | Upper abdominal pain (N % E, given as a single 0) [1, 4]: 0/0 | Vomiting, E = number of events [1, 4]: 1 | Vomiting, N = number of subjects [1, 4]: 1 | Vomiting, percentage of subjects [1, 4]: 7.1% | Asymptomatic hypoglycaemic episodes, N = number of subjects ([1]; 1.2 mg liraglutide): 10 | Asymptomatic hypoglycaemic episodes, percentage of subjects ([1]; 1.2 mg liraglutide): 71.4% | Documented symptomatic hypoglycaemic episodes, N = number of subjects ([1]; 1.2 mg liraglutide): 12 | Documented symptomatic hypoglycaemic episodes, percentage of subjects ([1]; 1.2 mg liraglutide): 85.7% | Probable symptomatic hypoglycaemic episodes, E = number of events ([1]; 1.2 mg liraglutide): 1 | Probable symptomatic hypoglycaemic episodes, N = number of subjects ([1]; 1.2 mg liraglutide): 1 | Probable symptomatic hypoglycaemic episodes, percentage of subjects ([1]; 1.2 mg liraglutide): 7.1% | Severe hypoglycaemic episodes, E = number of events ([1]; 1.2 mg liraglutide): 0 (0) 0/ | Severe hypoglycaemic episodes, N = number of subjects ([1]; 1.2 mg liraglutide): 0 (0) 0/ | Severe hypoglycaemic episodes, percentage of subjects ([1]; 1.2 mg liraglutide): 0 (0) 0/ % | Total ADA classified hypoglycaemic episodes, E = number of events ([1]; 1.2 mg liraglutide): 263 | Total ADA classified hypoglycaemic episodes, N = number of subjects ([1]; 1.2 mg liraglutide): 13 | Total ADA classified hypoglycaemic episodes, percentage of subjects ([1]; 1.2 mg liraglutide): 92.9% | AEs leading to withdrawal, E = number of events [1, 5]: 1 | AEs leading to withdrawal, N = number of subjects [1, 5]: 1 | AEs leading to withdrawal, percentage of subjects [1, 5]: 7.1% | Abdominal distention, E = number of events [1, 5]: 5 | Abdominal distention, N = number of subjects [1, 5]: 5 | Abdominal distention, percentage of subjects [1, 5]: 35.7% | Abdominal pain (N % E, given as a single 0) [1, 5]: 0/ | Adverse events, total number of events, E = number of events [1, 5]: 54 | Adverse events, total number of events, N = number of subjects [1, 5]: 13 | Adverse events, total number of events, percentage of subjects [1, 5]: 92.9% | Diarrhea, E = number of events [1, 5]: 5 | Diarrhea, N = number of subjects [1, 5]: 5 | Diarrhea, percentage of subjects [1, 5]: 35.7% | Dyspepsia, E = number of events [1, 5]: 1 | Dyspepsia, N = number of subjects [1, 5]: 1 | Dyspepsia, percentage of subjects [1, 5]: 7.1% | Flatulence (N % E, given as a single 0) [1, 5]: 0/0 | Nausea, E = number of events [1, 5]: 13 | Nausea, N = number of subjects [1, 5]: 11 | Nausea, percentage of subjects [1, 5]: 78.6% | Regurgitation, E = number of events [1, 5]: 1 | Regurgitation, N = number of subjects [1, 5]: 1 | Regurgitation, percentage of subjects [1, 5]: 7.1% | Serious AEs (N % E, given as a single 0) [1, 5]: 0/0 | Total number of GI AEs, E = number of events [1, 5]: 31 | Total number of GI AEs, N = number of subjects [1, 5]: 13 | Total number of GI AEs, percentage of subjects [1, 5]: 92.9% | Upper abdominal pain, E = number of events [1, 5]: 2 | Upper abdominal pain, N = number of subjects [1, 5]: 2 | Upper abdominal pain, percentage of subjects [1, 5]: 14.3% | Vomiting, E = number of events [1, 5]: 4 | Vomiting, N = number of subjects [1, 5]: 3 | Vomiting, percentage of subjects [1, 5]: 21.4% | Asymptomatic hypoglycaemic episodes, N = number of subjects ([1]; 1.8 mg liraglutide): 13 | Asymptomatic hypoglycaemic episodes, percentage of subjects ([1]; 1.8 mg liraglutide): 92.9% | Documented symptomatic hypoglycaemic episodes, N = number of subjects ([1]; 1.8 mg liraglutide): 14 | Documented symptomatic hypoglycaemic episodes, percentage of subjects ([1]; 1.8 mg liraglutide): 100% | Probable symptomatic hypoglycaemic episodes, E = number of events ([1]; 1.8 mg liraglutide): 4 | Probable symptomatic hypoglycaemic episodes, N = number of subjects ([1]; 1.8 mg liraglutide): 1 | Probable symptomatic hypoglycaemic episodes, percentage of subjects ([1]; 1.8 mg liraglutide): 7.1% | Severe hypoglycaemic episodes, E = number of events ([1]; 1.8 mg liraglutide): 0 (0) 0/ | Severe hypoglycaemic episodes, N = number of subjects ([1]; 1.8 mg liraglutide): 0 (0) 0/ | Severe hypoglycaemic episodes, percentage of subjects ([1]; 1.8 mg liraglutide): 0 (0) 0/ % | Total ADA classified hypoglycaemic episodes, E = number of events ([1]; 1.8 mg liraglutide): 316 | Total ADA classified hypoglycaemic episodes, N = number of subjects ([1]; 1.8 mg liraglutide): 14 | Total ADA classified hypoglycaemic episodes, percentage of subjects ([1]; 1.8 mg liraglutide): 100% | Number of adverse events (AEs) compared to placebo ([1]; during liraglutide treatment): higher | Gastrointestinal (GI) AEs compared to placebo ([1]; liraglutide adjunct to insulin): more | Number of hypoglycaemias or overall number of hypoglycaemic episodes (ADA classification) ([1]; liraglutide adjunct to insulin): did not affect | Severity of GI AEs ([1]; liraglutide adjunct to insulin): mild or moderate | Safety or tolerability issues ([1]; short-term trial, subjects with type 1 diabetes): No unexpected liraglutide-related safety or tolerability issues | Change in pulse from plasma glucose […] to nadir, estimated treatment difference ([2]; 0.6 mg group vs placebo): 0.6 BPM | Change in pulse from plasma glucose […] to nadir, estimated treatment difference ([2]; 1.2 mg group vs placebo): 2.3 BPM | Change in pulse from plasma glucose […] to nadir, estimated treatment difference ([2]; 1.8 mg group vs placebo): −3.4 BPM | Pulse compared to placebo ([2]; all plasma glucose levels, all liraglutide doses): significantly higher | Other counterregulatory hormones to hypoglycaemia, liraglutide vs placebo ([2]; during hypoglycaemic clamp): no systematic differences | Systolic and diastolic blood pressure, liraglutide vs placebo ([2]; during hypoglycaemic clamp): no systematic differences
